Legend:
[1] = test system: serine hydrolases in the mouse brain proteome (MBP); experiment: Multiplex ABPP in mouse brain proteome; assay type: biochemical; conditions: for labeling selectivity in ABPP (covalent probes): mouse brain homogenates, broad range of concentrations; for selectivity in competitive ABPP (reversible probes): mouse brain proteome, membrane and cytosolic fraction, 1 μM
Protocol: K = [L][P] = 0.5 [L]T (FP50 − 0.5 [L]T) = FP − 0.5 [L] […]
Mouse brain sample preparation
Mouse tissues were isolated according to guidelines approved by the ethical committee of Leiden University. Male mouse brain (27 weeks old) was homogenized with glass beads (2x 1 min, bullet blender, speed 8) using cold lysis buffer (20 mM Hepes pH 7.2, 1 mM MgCl 2, 2 U/mL Benzonase). The membrane and cytosol were separated by centrifugation. The membrane fraction was resuspended in Hepes/DTT buffer. Protein concentration was determined with Bradford Assay, and samples were diluted to a final concentration of 2.0 mg/mL. Samples were snap -frozen in liquid nitrogen and stored at -80 °C until further use.
Lysate (19 µL, 2 µg/µL) was thawed on ice. For comparative ABPP (irreversible probes), 1 µL of probe (20x stock in DMSO) or pure DMSO was added to the sample, vortexed briefly, and in cubated for 30 minutes at RT. For competitive ABPP (reversible probes), 0.5 µL of the reversible probe (40x stock in DMSO) or pure DMSO (as vehicle) was added to the sample, vortexed briefly, and incubated for 30 […]
minutes at RT. Subsequently, 0.5 µL MB064 (40x stock in DMSO) was added to the proteome sample, vortexed briefly, and incubated for 10 minutes at RT, after which 0.5 µL FP-Bodipy-FL (40x stock in DMSO) was added, vortexed briefly and incubated for 10 minutes at RT. The final volume was 20 - 20.5 µL (5 - 7.5% DMSO). The reaction was quenched by the addition of 7.5 µL of 4*Laemmli-buffer (final concentrations: 60 mM Tris (pH 6.8), 2% (w/v) SDS, 10% (v/v) glycerol, 1.25% (v/v) β-mercaptoethanol, 0.01% (v/v) bromophenol blue). 10 µL (14 µg protein) of the quenched reaction mixture was resolved on 10% acrylamide SDS-PAGE (180 V, 75 min). Fluorescence was measured using a Biorad ChemiDoc MP system (fluorescence channels Cy2, Cy3, Cy5). Gels were then stained using coomassie staining and imaged for protein loading control. Labeling of the respective proteins via MB064 and FP-BODIPY was visualized in two separate channels. […]
Activity based protein profiling (ABPP)
PBMCs were thawed, washed with 1 x PBS and equal amounts of cells were exposed to DMSO (D2650; Sigma-Aldrich) or MAGL inhibitor PF (PF-06795071) in DMSO for 30 min at room temperature with concentrations ranging from 1 nM to 1000 nM. Cells were washed with 1 x PBS and lysed in ice -cold lysis buffer (ab156035; Abcam), lysates were centrifuged at 14,000 x g for 15 minutes at 4°C and supernatants were collected. For ABPP experiments, cell lysates containing equal amounts of protein were incubated with the appropriate concentration of activity -based probe for 30 min at room temperature. The reaction was quenched for 30 min by adding SDS -PAGE loading buffer (NP0007, Thermo). Samples were then separated by SDS-PAGE and bands were detected ChemiDoc Imager (Bio-Rad Laboratories). Following detection, gels were stained with SimplyBlue™ SafeStain (LC6060, Thermo) for 1 hour with gentle agitation and excess stain was removed by destaining in ddH2O for 1 h with gentle agitation. Gels were imaged and protein bands were quantified using Image Lab software (Bio-Rad Laboratories).

H3 (h) = H3 (h) (Homo sapiens, UniProt Q9Y5N1); experiment: H3 (h) (agonist radioligand); conditions: read-out: Inhibition H3 (h) (agonist radioligand)
Chain of H3 (h) (Q9Y5N1 whole entry): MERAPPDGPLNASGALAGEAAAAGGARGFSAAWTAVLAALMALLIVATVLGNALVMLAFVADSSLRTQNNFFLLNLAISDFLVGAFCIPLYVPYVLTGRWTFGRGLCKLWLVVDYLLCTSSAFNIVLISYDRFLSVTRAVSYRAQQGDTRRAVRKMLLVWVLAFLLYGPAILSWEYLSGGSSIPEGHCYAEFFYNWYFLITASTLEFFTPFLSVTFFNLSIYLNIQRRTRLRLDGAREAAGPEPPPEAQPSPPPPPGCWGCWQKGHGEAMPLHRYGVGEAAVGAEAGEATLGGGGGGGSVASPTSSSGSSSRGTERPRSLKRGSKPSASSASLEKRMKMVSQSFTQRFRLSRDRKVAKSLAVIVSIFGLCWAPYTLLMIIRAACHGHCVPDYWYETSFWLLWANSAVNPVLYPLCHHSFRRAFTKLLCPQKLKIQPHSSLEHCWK

H2 (h) = H2 (h) (Homo sapiens, UniProt P25021); experiment: H2 (h) (antagonist radioligand); conditions: read-out: Inhibition H2 (h) (antagonist radioligand)
Chain of H2 (h) (P25021 whole entry): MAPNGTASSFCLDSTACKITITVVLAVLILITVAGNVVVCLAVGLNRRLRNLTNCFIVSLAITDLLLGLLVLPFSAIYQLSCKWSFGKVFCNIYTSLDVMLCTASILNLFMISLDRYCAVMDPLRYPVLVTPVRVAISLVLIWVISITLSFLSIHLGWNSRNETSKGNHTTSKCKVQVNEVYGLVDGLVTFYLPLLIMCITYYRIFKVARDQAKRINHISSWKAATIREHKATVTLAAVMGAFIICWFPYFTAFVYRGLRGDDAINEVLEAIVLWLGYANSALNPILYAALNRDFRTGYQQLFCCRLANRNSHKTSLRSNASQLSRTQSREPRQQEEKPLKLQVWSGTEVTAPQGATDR

5-HT1A (h) = target: T1, 5-HT1A (h) (Homo sapiens, UniProt P08908); experiment: 5-HT1A (h) (agonist radioligand); conditions: read-out: Inhibition 5-HT1A (h) (agonist radioligand)
T1 sequence (P08908 1-422): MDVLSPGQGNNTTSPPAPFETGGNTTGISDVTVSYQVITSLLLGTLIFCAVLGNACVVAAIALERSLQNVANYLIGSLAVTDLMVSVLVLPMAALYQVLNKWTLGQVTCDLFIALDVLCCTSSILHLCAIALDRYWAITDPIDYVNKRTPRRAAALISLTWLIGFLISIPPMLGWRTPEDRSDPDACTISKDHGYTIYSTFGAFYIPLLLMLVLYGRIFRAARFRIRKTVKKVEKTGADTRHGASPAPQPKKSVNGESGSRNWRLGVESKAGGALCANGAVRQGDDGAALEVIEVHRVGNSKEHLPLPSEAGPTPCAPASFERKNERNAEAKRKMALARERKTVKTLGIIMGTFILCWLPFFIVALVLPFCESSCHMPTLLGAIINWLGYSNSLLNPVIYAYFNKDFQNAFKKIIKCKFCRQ

[2] = test system: 50 clinically relevant and safety-related off-targets; experiment: CEREP panel of 50 off-targets (overall); conditions: for selectivity profile in off-target panel: 10 μM, panel of 50 unrelated off-target receptors and enzymes; for S(90): fraction of targets with more than 90% inhibition at 10 µM; for S(50): fraction of targets with more than 50% inhibition at 10 µM
Estrogen ER alpha (h) = Estrogen ER alpha (h) (Homo sapiens, UniProt P03372); experiment: Estrogen ER alpha (h) (agonist radioligand); conditions: read-out: Inhibition Estrogen ER alpha (h) (agonist radioligand)
Chain of Estrogen ER alpha (h) (P03372 whole entry): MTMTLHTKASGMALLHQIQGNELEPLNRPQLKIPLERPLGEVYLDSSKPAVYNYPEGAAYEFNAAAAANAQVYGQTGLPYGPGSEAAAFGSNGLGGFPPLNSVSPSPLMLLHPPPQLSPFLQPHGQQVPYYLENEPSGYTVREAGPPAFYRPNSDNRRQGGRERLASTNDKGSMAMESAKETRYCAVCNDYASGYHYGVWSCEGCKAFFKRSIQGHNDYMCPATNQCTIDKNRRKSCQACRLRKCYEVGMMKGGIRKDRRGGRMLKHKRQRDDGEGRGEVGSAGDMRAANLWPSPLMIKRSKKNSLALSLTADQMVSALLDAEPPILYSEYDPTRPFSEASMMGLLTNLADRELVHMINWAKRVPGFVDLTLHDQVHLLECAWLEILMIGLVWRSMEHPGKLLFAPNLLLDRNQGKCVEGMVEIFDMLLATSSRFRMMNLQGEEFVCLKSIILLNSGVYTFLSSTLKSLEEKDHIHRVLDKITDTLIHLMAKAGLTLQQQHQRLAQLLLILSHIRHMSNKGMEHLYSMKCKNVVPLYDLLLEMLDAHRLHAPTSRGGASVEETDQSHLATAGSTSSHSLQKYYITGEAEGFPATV

| Structure (SMILES) | labeling selectivity in ABPP (covalent probes) [1] | inhibition at 10 µM (H3 (h)) [%] | inhibition at 10 µM (H2 (h)) [%] | inhibition at 10 µM (5-HT1A (h)) [%] | selectivity profile in off-target panel [2] | S(90) [2] [%] | inhibition at 10 µM (Estrogen ER alpha (h)) [%] | S(50) [2] [%] | selectivity in competitive ABPP (reversible probes) [1] |
| --- | --- | --- | --- | --- | --- | --- | --- | --- | --- |
| O=C(O[C@H](CO)C(F)(F)F)N1CC2(CC(CC3=C4C=CC=[N+]4[B-](F)(F)n4cccc43)C2)C1 [Compound 1] | only selective irreversible labeling of the two MAGL isoforms | 5.2 | -10.7 | 0 | very clean selectivity profile | 0.0 | 17.8 |  |  |
| O=C(OC(C(F)(F)F)C(F)(F)F)N1CC2(CC(CC3=C4C=CC=[N+]4[B-](F)(F)n4cccc43)C2)C1 [Compound 2] | only selective irreversible labeling of the two MAGL isoforms | -7.2 | -18.7 | -29.4 | very clean selectivity profile | 0.0 | -0.8 | 4.0 |  |
| O=C(OC(C(F)(F)F)C(F)(F)F)N1CC2(CC(CC3=C4C=CC(c5ccc[nH]5)=[N+]4[B-](F)(F)n4cccc43)C2)C1 [Compound 2a] | only selective irreversible labeling of the two MAGL isoforms | 7.3 | -48.6 | -5.5 | very clean selectivity profile | 0.0 | -13.7 | 0.0 |  |
| O=C1CO[C@H]2CCN(C(=O)N3CC4(CC(CC5=C6C=CC=[N+]6[B-](F)(F)n6cccc65)C4)C3)C[C@H]2N1 [Compound 4] |  |  |  |  |  |  |  |  | no other potential off-target detectable |
| O=C1CO[C@H]2CCN(C(=O)N3CC4(CC(CC5=C6C=CC(c7ccc[nH]7)=[N+]6[B-](F)(F)n6cccc65)C4)C3)C[C@H]2N1 [Compound 4a] |  | 1.8 | -34.8 | -2.4 | very clean selectivity profile | 0.0 | -2.5 | 0.0 | no other potential off-target detectable |
| O=C(N1CC2(CC(CC3=C4C=CC=[N+]4[B-](F)(F)n4cccc43)C2)C1)N1CC2(CC(n3cnc(C4CC4)n3)C2)C1 [Compound 5] |  | -3.7 | -1.9 | 2.4 | very clean selectivity profile | 0.0 | 35 |  | no other potential off-target detectable |
